System: diarrhea-predominant IBS subjects
Experiment: Study S241.3.011: weekly diary questions on adequate relief
Format: in vivo, human
Settings: for Overall responder rate, adequate relief of IBS symptoms / Overall responder rate, adequate relief of abdominal pain/discomfort / Overall responder rate, adequate relief of abnormal bowel habits: observed case
Experimental: Study S241.3.011 was a Phase III, double-blind, placebo-controlled, randomized, multinational study to investigate the safety and efficacy of 2 mg TID of cilansetron for a period of 12 weeks followed by a rerandomized, placebo-controlled four-week treatment period, in diarrhea-predominant IBS subjects. The study was conducted in six countries including the US. A total of 2115 subjects consented to participate, and 770 subjects were randomized. A total of 746 subjects were analyzed for efficacy and 755 subjects were analyzed for safety. Diagnosis and main criteria for inclusion were IBS subjects satisfying the Rome I criteria (1992); the diarrhea predominant sub-population of the Rome II criteria; and a minimum abdominal pain/discomfort, stool frequency and consistency determined during the run-in period. Subjects were treated with cilansetron 2 mg tablets given orally TID or matching placebo tablets given orally TID for 12 weeks followed by a rerandomized, placebo-controlled four-week treatment period.
The primary efficacy parameter was the number of months that a subject was a responder for IBS symptoms (abdominal pain, abdominal discomfort, abnormal bowel habits) over the 12-week treatment period. A responder for a month (monthly responder) was defined as a subject who answered the weekly question with “yes” at least twice for that month. The two main secondary efficacy parameters were the monthly responder rates based on the “adequate relief” questions regarding abdominal pain/discomfort and abnormal bowel habits during the 12-week treatment period. The overall response rate and responder rate for the weekly diary questions on adequate relief at each month and all months, the adequate relief rate, the number of subjects with adequate relief by week, daily diary questions, IBS-QOL scores, and the interruption of activities were also assessed. Safety was evaluated by physical examination, ECG, vital signs, laboratory evaluations, concomitant medications, and AEs.
Subjects who were initially randomized to the cilansetron 2 mg TID group and rerandomized to placebo, will be referred to as the C/P treatment group; subjects initially randomized to the placebo group and rerandomized to placebo will be referred to as the P/P treatment group; the P/C and C/C treatment group nomenclature follow the same principle. Of the 591 subjects who completed the three-month treatment period, 576 subjects were rerandomized and thus divided into the following treatment groups: 150 subjects in the C/C treatment group, 140 subjects in the C/P treatment group, 136 subjects in the P/C treatment group, and 150 subjects in the P/P treatment group. Of the 576 subjects rerandomized, a higher percentage of subjects in the C/C treatment group (99%) completed the study compared with the C/P (95%), P/C (93%), and the P/P (95%) treatment groups.
Studies S24 1.3.OO6, S24 1.3.0 1 1, and S24 1.3.009 used the following efficacy measurements: • The subjects answered the following three questions with “yes” or “no” using a phone diary at the end of each week: • a) During the last week, did you experience adequate relief of your IBS symptoms, such as abdominal pain, abdominal discomfort, abnormal bowel habits? • b) During the last week, did you experience adequate relief of your abdominal pain and/or discomfort? • c) During the last week, did you experience adequate relief of your abnormal bowel habits? • The subjects rated the following symptoms using the phone diary at the end of each day: • abdominal pain/discomfort (five-point scale); • stool consistency (seven-point Bristol Stool Scale); • stool frequency (number of bowel movements each day); • urgency (five-point scale); • straining (yes or no); • feeling of incomplete defecation (yes or no); • bloating or feeling of abdominal distension (five-point scale). • In Studies S241 A006 and S241.3.009, subjects completed the IBS-QOL Survey at Baseline (Day 1) and at the end of treatment. […]

[1] = Female subjects, three-month treatment period, monthly LOCF, ITT, 2 mg TID
[2] = Female subjects, three-month treatment period, ITT, 2 mg TID
[3] = Male subjects, three-month treatment period, monthly LOCF, ITT, 2 mg TID
[4] = Male subjects, three-month treatment period, ITT, 2 mg TID
[5] = RR Group C/C (cilansetron 2 mg TID, rerandomized to cilansetron)
[6] = RR Group C/P (cilansetron 2 mg TID, rerandomized to placebo)

Cc1nccn1C[C@H]1CCc2c(c3cccc4c3n2CCC4)C1=O [Cilansetron, (R)-(−)-4,5,6,8,9,10-hexahydro-10-[(2-methyl-1H-imidazol-1-yl)methyl]-11H-pyrido-[3,2,1-jk]-carbazol-11-one]
Number of months a subject was a responder: Three months (Abnormal bowel habits) [1]: 101 (39) n (%) | Number of months a subject was a responder: Three months (IBS symptoms) [1]: 96 (37) n (%) | Number of months a subject was a responder: Two months (Abdominal pain/discomfort) [1]: 57 (22) n (%) | Number of months a subject was a responder: Two months (Abnormal bowel habits) [1]: 48 (18) n (%) | Number of months a subject was a responder: Two months (IBS symptoms) [1]: 52 (20) n (%) | Number of months a subject was a responder: Zero months (Abdominal pain/discomfort) [1]: 74 (28) n (%) | Number of months a subject was a responder: Zero months (Abnormal bowel habits) [1]: 79 (30) n (%) | Number of months a subject was a responder: Zero months (IBS symptoms) [1]: 79 (30) n (%) | Overall responder rate, adequate relief of IBS symptoms [2]: 138 (53) n (%) | Overall responder rate, adequate relief of abdominal pain/discomfort [2]: 151 (58) n (%) | Overall responder rate, adequate relief of abnormal bowel habits [2]: 140 (53) n (%) | Number of months a subject was a responder: One month (Abdominal pain/discomfort) [3]: 15 (13) n (%) | Number of months a subject was a responder: One month (Abnormal bowel habits) [3]: 16 (14) n (%) | Number of months a subject was a responder: One month (IBS symptoms) [3]: 19 (17) n (%) | Number of months a subject was a responder: Three months (Abdominal pain/discomfort) [3]: 58 (50) n (%) | Number of months a subject was a responder: Three months (Abnormal bowel habits) [3]: 48 (42) n (%) | Number of months a subject was a responder: Three months (IBS symptoms) [3]: 52 (45) n (%) | Number of months a subject was a responder: Two months (Abdominal pain/discomfort) [3]: 15 (13) n (%) | Number of months a subject was a responder: Two months (Abnormal bowel habits) [3]: 18 (16) n (%) | Number of months a subject was a responder: Two months (IBS symptoms) [3]: 18 (16) n (%) | Number of months a subject was a responder: Zero months (Abdominal pain/discomfort) [3]: 27 (23) n (%) | Number of months a subject was a responder: Zero months (Abnormal bowel habits) [3]: 33 (29) n (%) | Number of months a subject was a responder: Zero months (IBS symptoms) [3]: 26 (23) n (%) | Overall responder rate, adequate relief of IBS symptoms [4]: 68 (59) n (%) | Overall responder rate, adequate relief of abdominal pain/discomfort [4]: 70 (61) n (%) | Overall responder rate, adequate relief of abnormal bowel habits [4]: 63 (55) n (%) | Responder rate, abdominal pain/discomfort (Peru): 69% | Responder rate, abnormal bowel habits (Peru): 75% | Δ Month 4 vs Month 3, responder rate, Adequate Relief of Abdominal Pain/Discomfort (RR Group C/C): 0% | Δ Month 4 vs Month 3, responder rate, Adequate Relief of Abnormal Bowel Habits (RR Group C/C): +2% | Δ Month 4 vs Month 3, responder rate, Adequate Relief of IBS Symptoms (RR Group C/C): +3% | Monthly responder rate, Adequate Relief of Abdominal Pain/Discomfort, Month 3 [5]: 70% | Monthly responder rate, Adequate Relief of Abdominal Pain/Discomfort, Month 4 [5]: 70% | Monthly responder rate, Adequate Relief of Abnormal Bowel Habits, Month 3 [5]: 68% | Monthly responder rate, Adequate Relief of Abnormal Bowel Habits, Month 4 [5]: 70% | Monthly responder rate, Adequate Relief of IBS Symptoms, Month 3 [5]: 66% | Monthly responder rate, Adequate Relief of IBS Symptoms, Month 4 [5]: 69% | Δ Month 4 vs Month 3, responder rate, Adequate Relief of Abdominal Pain/Discomfort (RR Group C/P): −16% | Δ Month 4 vs Month 3, responder rate, Adequate Relief of Abnormal Bowel Habits (RR Group C/P): −18% | Δ Month 4 vs Month 3, responder rate, Adequate Relief of IBS Symptoms (RR Group C/P): −22% | Monthly responder rate, Adequate Relief of Abdominal Pain/Discomfort, Month 3 [6]: 66% | Monthly responder rate, Adequate Relief of Abdominal Pain/Discomfort, Month 4 [6]: 50% | Monthly responder rate, Adequate Relief of Abnormal Bowel Habits, Month 3 [6]: 60% | Monthly responder rate, Adequate Relief of Abnormal Bowel Habits, Month 4 [6]: 42% | Monthly responder rate, Adequate Relief of IBS Symptoms, Month 3 [6]: 61% | Monthly responder rate, Adequate Relief of IBS Symptoms, Month 4 [6]: 39% | Overall responder rate, IBS symptoms (entire four months, C/C group): 66% | Overall responder rate, abdominal pain/discomfort (entire four months, C/C group): 70% | Overall responder rate, abnormal bowel habits (entire four months, C/C group): 69% | Overall responder rate, IBS symptoms (females): 53% | Overall responder rate, abdominal pain/discomfort (females): 58% | Overall responder rate, abnormal bowel habits (females): 53% | Overall responder rate, IBS symptoms (males): 59% | Overall responder rate, abdominal pain/discomfort (males): 61% | Overall responder rate, abnormal bowel habits (males): 55% | Overall responder rate, IBS symptoms (non-Caucasians): 66% | Overall responder rate, abdominal pain/discomfort (non-Caucasians): 66% | Overall responder rate, abnormal bowel habits (non-Caucasians): 70%

— patent US20090176817A1, “Method of Treatment of Diarrhea-Predominant Irritable Bowel Syndrome in a Subject” (priority 2005, published 2009)
